The values that follow come from the METLIN SMRT retention time set (Domingo-Almenara et al. 2019).

Each structure is given as a SMILES string.

This data set can be described thus: gradient 5% acetonitrile 3 min, to 50% in 2 min, to 85% in 15 min, held 3 min, 100 µL/min. The conditions noted are these: column: Zorbax Extend-C18 2.1 x 50 mm; eluents: water / acetonitrile, 0.1% formic acid. The method, boiled down:
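Retention time was recorded from adduct peaks, which were picked computationally and each inspected manually. Pure standards ran in mixtures of ~100 molecules on HPLC coupled to a quadrupole time-of-flight mass spectrometer, in positive and negative ionization mode, through a Zorbax Extend-C18 column (2.1 × 50 mm, 1.8 μm) at 100 μL/min. Eluents were water and acetonitrile, each with 0.1% formic acid.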
As for `Cc1c(CC(=O)N2CCC(C(N)=O)CC2)c(=O)oc2cc3occ(C(C)(C)C)c3cc12`, the RP-LC retention time came to 785 s.

For the compound `CCCn1cnc2cc(-c3noc(CNC(=O)Cc4ccccc4)n3)ccc21`, the RP-LC retention time amounted to 659 s.

`O=C(c1ccc(N2C[C@H]3C[C@H](C2)[C@H]2CCCC(=O)N2C3)nc1)N1CCC2(CC1)OCCO2`: the RP-LC retention time was 584 s.

`CCCc1cc(N2CCN(C(=O)c3ccn(CC)n3)CC2)nc2nnc(CC)n12`: the RP-LC retention time worked out at 616 s.

`Cc1cccc(CSc2nnc3c(S(=O)(=O)N4CCCC4)cccn23)c1` registered an RP-LC retention time of 883 s.

Compound `COc1ccc(F)cc1S(=O)(=O)N1CCC(n2cnnc2C)CC1` displayed an RP-LC retention time of 650 s.

In turn, `COc1cccc(CNC(=O)C2(C)CCCN(C(=O)Nc3ccc(F)c(Cl)c3)C2)c1` (stereo not given) gave an RP-LC retention time of 959 s.

As to `CC(=O)Nc1cccc(-c2nc(-c3cccc(-c4ccn[nH]4)c3)no2)c1`, the RP-LC retention time worked out at 763 s.

Take `COC(=O)C(C)Oc1cc(O)c2c(=O)cc(-c3ccccc3)oc2c1` (stereo not given): the RP-LC retention time was determined as 1060 s.

Regarding `O=C(CCc1c(-c2ccc(F)cc2)nc2ccccn12)N1CCN(c2ccccc2F)CC1`, the RP-LC retention time was found to be 694 s.

For `COCCNC(=O)C1CCCN(c2ncnc3c2oc2ccccc23)C1` (stereo not given), the RP-LC retention time was found to be 633 s.

For the compound `Cc1ccc(C(=O)NCc2ccc3c(c2)ncn3C(C)C)s1`, the RP-LC retention time came out at 614 s.

For the compound `CC(=O)Nc1ccc(S(=O)(=O)Nc2ccc3c(c2)CCC(=O)N3C)cc1`, the RP-LC retention time was 604 s.

Compound `CC1CCCN(c2nn(CC(=O)Nc3ccc(F)cc3)c(=O)c3ccccc23)C1` (stereo not given) came in with an RP-LC retention time of 1090 s.

Compound `CC1CCc2nn(CC(=O)NCCN3CCCCCC3)cc2C1` (stereo not given) displayed an RP-LC retention time of 605 s.

For `COc1ccc(C(=O)CSc2nnc(NC(=O)CN(C)S(C)(=O)=O)s2)cc1`, the RP-LC retention time is 700 s.

As to `CCOc1ccc(CCNC(=O)c2c(C)oc3nc(C)nc(N4CCCC4)c23)cc1`, the RP-LC retention time is 697 s.

On to `COc1ccc(C2(C(=O)Nc3cc(-c4nnc(C)o4)sc3C)CC2)cc1`, for which the RP-LC retention time is 989 s.

Turning to `Cc1nc(-c2csc(S(=O)(=O)N3CCCC(C(=O)Nc4cccc(Cl)c4)C3)c2)no1` (stereo not given), the RP-LC retention time amounted to 1040 s.

`COCCCNC(=O)C1CCN(C(=O)c2ccc(-n3c(C)cc4ccccc43)s2)CC1` displayed an RP-LC retention time of 854 s.

Regarding `CSc1cccc(NC(=O)C2CCN(C(=O)c3cc(-c4ccncc4)n[nH]3)CC2)c1`, the RP-LC retention time was 637 s.

Consider `CC1CCCN(CCCNC(=O)c2nc3nc(-c4ccco4)cc(C(F)(F)F)n3n2)C1` (stereo not given), for which the RP-LC retention time came to 641 s.

The compound `CCN1CC(c2nc(-c3ccccc3)no2)C2(CCCC2)C1` (stereo not given) showed an RP-LC retention time of 709 s.

For the compound `O=C(Cc1c[nH]c2ccccc12)N1CCN(c2cc(-c3cccs3)[nH]n2)CC1`, the RP-LC retention time turned out to be 756 s.

`CCN(CC)S(=O)(=O)c1ccc2c(c1)N(CC(=O)NCCOC)C(=O)C1CCCCN21` (stereo not given) yielded an RP-LC retention time of 788 s.

`Cc1nn(C)c(C)c1S(=O)(=O)N1CCC2(CC1)C(=O)N(C(C)C)C2c1ccccc1` (stereo not given) had an RP-LC retention time of 837 s.

In the case of `CCn1c(=O)n(CCc2ccccc2)c2cncnc21`, the RP-LC retention time came to 715 s.

For the compound `CCN(C(=O)Cn1nc2n(c1=O)CCCCC2)c1ccccc1`, the RP-LC retention time turned out to be 709 s.

For the compound `CCOC(=O)c1c(C)[nH]c(C(=O)N2CCC(C(C)C(=O)N3CCN(c4ccccc4)CC3)CC2)c1C` (stereo not given), the RP-LC retention time was 871 s.

The compound `CCN1CCN(c2ncc(N3CCC(C(=O)NCCN4CCCCC4C)CC3)cn2)CC1` (stereo not given) displayed an RP-LC retention time of 537 s.

As for `Cc1sc(NC(=O)Cc2csc(-c3ccccc3)n2)nc1-c1ccc(F)cc1`, the RP-LC retention time came out at 1200 s.

`O=C(NC1CCCCCC1)C1CCN(c2cn[nH]c(=O)c2)C1` (stereo not given) came in with an RP-LC retention time of 652 s.

`COC(=O)c1c(-c2ccccc2)noc1NCc1ccc(OC)cc1OC` displayed an RP-LC retention time of 1070 s.

The compound `CSc1ccc(CNC(=O)C2CCCN(C(=O)c3cc(C)cc(C)c3)C2)cc1` (stereo not given) yielded an RP-LC retention time of 921 s.

`CN(C)CCNCc1ccc(-c2cc(Cl)cc(Cl)c2)o1` had an RP-LC retention time of 597 s.

Compound `COc1ccc(CCNC(=O)C2CCN(C(=O)C3Sc4ccccc4NC3=O)CC2)cc1OC` (stereo not given) showed an RP-LC retention time of 694 s.

On to `O=C1CCN(C(=O)c2ccco2)CCCC(CO)CCN1` (stereo not given), for which the RP-LC retention time is 566 s.

For the compound `CCN1CCN(CCNC(=O)CCC(=O)N2CC3CCCN3c3ccccc32)CC1` (stereo not given), the RP-LC retention time worked out at 561 s.

`N#Cc1ccc(CN2CCC(F)(F)C(COCc3cccnc3)C2)cc1` (stereo not given) yielded an RP-LC retention time of 575 s.

With `COC(=O)c1[nH]c(C)c(C(=O)C(C)N(CC(C)C)C(=O)c2ccccc2Cl)c1C` (stereo not given), the RP-LC retention time came out at 932 s.

`Cn1ncc2c(N3CCN(c4ccc(F)cc4)CC3)ncnc21` displayed an RP-LC retention time of 802 s.

The compound `CS(=O)(=O)NCc1ccc2c(c1)CCN2C(=O)c1ccc(Cl)cc1` returned an RP-LC retention time of 794 s.

Turning to `CCCN(C)c1nccn2c(=O)n(CC(=O)Nc3ccc(C)cc3F)nc12`, the RP-LC retention time turned out to be 719 s.

Compound `CCOc1ccccc1NC(=O)CN1C(=O)C2CCCCN2c2ccc(S(=O)(=O)N(C)C)cc21` (stereo not given) returned an RP-LC retention time of 887 s.

`O=C(NCc1ccncc1)C1=C2CCCN2c2ccc(F)cc2S1(=O)=O` displayed an RP-LC retention time of 583 s.

`COc1cc(OC)c(C(=O)CCCCN2CCC3(CC2)NC(=O)NC3=O)cc1NS(=O)(=O)c1ccc(C(F)(F)F)cc1`: the RP-LC retention time was 750 s.

`Oc1ccccc1-c1nc2ccc(Cl)cn2c1Nc1ccc(Cl)cc1` returned an RP-LC retention time of 1090 s.

With `CCOc1ccc(NC(=O)CNC(=O)C2CCCCC2)cc1`, the RP-LC retention time was found to be 733 s.

Turning to `CCn1c(=O)oc2cc(-c3noc(-c4ccc(C)c(F)c4)n3)ccc21`, the RP-LC retention time amounted to 1200 s.

The compound `CCCn1c(-c2cccc(C(=O)NC(C)c3ccc(C)cc3C)c2)nc2cccnc21` (stereo not given) displayed an RP-LC retention time of 955 s.

In turn, `COc1cc(NC(=O)COc2cc(C)nc(-c3ccc(C(F)(F)F)cc3)n2)cc(OC)c1OC` registered an RP-LC retention time of 1080 s.

With `CCOc1ccccc1NC(=O)c1ccc(=O)n(Cc2ccccc2)n1`, the RP-LC retention time worked out at 980 s.

Regarding `Cc1ccc(NC(=O)C(=O)NCCCN2CCOCC2)cc1F`, the RP-LC retention time stood at 573 s.

`O=C1CC(C(F)(F)F)c2c(c(C(=O)O)cn2-c2cccc(Cl)c2)N1` (stereo not given) had an RP-LC retention time of 786 s.

In the case of `Cc1cc(C(=O)NCCCN2CCCC2=O)c2c(C)nn(-c3ccccc3)c2n1`, the RP-LC retention time amounted to 732 s.

For the compound `CC(=O)Nc1ccc(NC(=O)c2nn(-c3ccc(F)cc3)c3ccccc3c2=O)cc1`, the RP-LC retention time came out at 778 s.

In the case of `N#Cc1c(NC(=O)C2Cc3ccccc3C(=O)O2)sc2c1CCCC2` (stereo not given), the RP-LC retention time amounted to 663 s.

In turn, `COCCn1c(SCc2ccccc2Cl)nc2cc(C(=O)NC(C)C)ccc2c1=O` yielded an RP-LC retention time of 1010 s.

As for `COc1ccc(-c2c(C)noc2NC(C)=O)cc1S(=O)(=O)NCCc1ccc(Cl)cc1`, the RP-LC retention time turned out to be 894 s.

Compound `O=C(Cc1ccc(F)cc1)NC1CCN(c2ccccc2)C1=O` (stereo not given) displayed an RP-LC retention time of 770 s.

`Cc1nc2cc(-c3noc(COc4ccc(Cl)cc4)n3)ccc2o1`: the RP-LC retention time was found to be 1060 s.

For `O=C(O)C1CCc2sc(C(=O)N3CCOCC3)cc2C1` (stereo not given), the RP-LC retention time turned out to be 625 s.

With `CCn1c(=O)c(N2CCC(C(=O)NCCCN3CCCC3=O)CC2)nc2ccccc21`, the RP-LC retention time is 643 s.

For `CSc1ccc(CCNC(=O)Cn2nc(-n3cccc3)c3c(C)cc(C)nc32)cc1`, the RP-LC retention time is 1050 s.

Compound `CCc1noc(COC2CCCN(C(=O)NCc3ccco3)C2)n1` (stereo not given) gave an RP-LC retention time of 722 s.

`COC(=O)Nc1ccc(-c2nc(N3CCOCC3)c3cnn(C4CCN(Cc5cccnc5)CC4)c3n2)cc1` returned an RP-LC retention time of 665 s.

In turn, `CCCCCCCC1(C)NC(=O)NC1=O` (stereo not given) displayed an RP-LC retention time of 817 s.

In the case of `O=C(c1ccc2ccnc(N3CCN(c4ccccc4)CC3)c2c1)N1CCC(N2CCCCC2)CC1`, the RP-LC retention time worked out at 589 s.

For `CCOC(=O)N1CCN(S(=O)(=O)CCNC(=O)c2ccccc2)CC1`, the RP-LC retention time amounted to 669 s.

As to `CCOc1cc(-c2ccc(F)cc2)nc2ccc(NC(=O)C3CCC3)cc12`, the RP-LC retention time is 774 s.

As to `C=CCNC(=O)C1CCCN(C(=O)Nc2ccc(NC(=O)Nc3ccccc3)cc2)C1` (stereo not given), the RP-LC retention time worked out at 707 s.

The compound `COC(=O)c1ccc(-c2nc3cnccn3c2Nc2ccc(C)cc2Br)cc1` registered an RP-LC retention time of 1060 s.

In turn, `CCC(=O)N1CCc2cc(N3CC(C(=O)Nc4ccccc4F)CC3=O)ccc21` (stereo not given) came in with an RP-LC retention time of 741 s.

As to `O=C1CCCN1CCCNc1ccc2nnc(CCC(=O)N3CCN(c4ccccn4)CC3)n2n1`, the RP-LC retention time worked out at 557 s.

On to `NC(=O)c1ccsc1NC(=O)c1ccc(S(=O)(=O)N2CCc3ccccc3C2)cc1`, for which the RP-LC retention time turned out to be 877 s.

Compound `Cc1ccc(Cn2cc(-c3nc(-c4ccc(Cl)cc4)no3)ccc2=O)cc1` registered an RP-LC retention time of 1250 s.

Consider `Cc1cccc(S(=O)(=O)N2CCN(c3cnn4c(C5CC5)nnc4c3)CC2)c1`, for which the RP-LC retention time was 752 s.

Regarding `CCCNC(=O)Cn1c(=O)c2cccn2c2ccc(F)cc21`, the RP-LC retention time is 729 s.

`CCCNC(=O)c1cccc2c1CCN2C(C)=O` yielded an RP-LC retention time of 633 s.

`CCOC(=O)N1CCN(C(=O)C2CCN(c3ncnc4c3oc3ccccc34)CC2)CC1` showed an RP-LC retention time of 673 s.
